Structures can show the parent of a compound that is named as a salt.
Legend:
[1] = solubility in water at different pH
[2] = solubility of local anesthetic in ketorolac solution; format: physicochemical; conditions: 15% ketorolac, not re-dispersed by heating or adjusting the pH
[3] = degradation of ketorolac in solution; format: physicochemical; conditions: 1-keto analog proportional to amount of ketorolac and available oxygen
From the text: The amount of 1-keto analog produced is generally proportional to the amount of ketorolac in solution and available oxygen (e.g., in the head space of the container, such as those described in U.S. patent application Ser. No. 12/404,250, filed on Mar. 13, 2009, entitled, “Device for Intranasal Administration,”).

In the case of `CCOC(=O)c1ccc(N)cc1` [benzocaine hydrochloride], the “pH of the solution in water” value [1] is reported as “about 1.5” and the solubility in water ([1]; water, pH not adjusted) is reported as “soluble in water”.

With `CCOC(=O)c1ccc(N)cc1` [benzocaine] the “precipitation in the presence of ketorolac” value ([2]; 6% benzocaine solution) was “precipitation was observed”, the “precipitation in the presence of ketorolac” value ([2]; 10% benzocaine solution) was “precipitation was observed” and the solubility ([1]; low pH) was “soluble”. For the same compound, the solubility in water ([1]; physiological pH ranges of 4.5 to 7.2) was “low solubility”.

With `O=C(c1ccccc1)c1ccc2n1CCC2C(=O)O` (stereo not shown) [ketorolac, 5-benzoyl-2,3-dihydro-1H-pyrrolizine-1-carboxylic acid] the “stability in solution (degradation products)” value [3] was “produces several degradation products”.
